Tests used:
Assay type in all cases: cell-based, human
[1] = system: IL-13-induced intracellular alkalinization in BEAS-2B cells (ngH,K-ATPase); test: Intracellular pH (pHi) imaging, pHrodo Green, IL-13-stimulated BEAS-2Bs; conditions: up to 1 h after IL-13, spectrofluorometry
Protocol: The pH-sensitive dye, pHrodo® Green AM intracellular pH indicator (Life Technologies) that increases its fluorescence with decreasing pHi was used (ref 39; incorporated by reference in its entirety). Cells cultured in glass bottom microwell dishes (MatTek, Ashland, Mass.) were pre-treated with omeprazole or vehicle prior to 6 h IL-13 stimulation. Then cells were incubated with dye (5 μM) with live cell imaging solution (Life Technologies) at 37° C. for 30 minutes per manufacturer's instructions. Spinning disk confocal microscopy for live cells imaging was performed with Andor XDi Revolution (Andor Technologies, Belfast, UK). Fluorescence intensity was measured in 150 cells using Image J software (National Institutes of Health, Bethesda, Md.). For kinetic experiments, fluorescence intensity of cells cultured in 96-well plates with omeprazole, SCH-28080 or matched vehicle was measured at various times before and after IL-13 stimulation up to 1 h using the SpectraMax® Gemini EM Microplate Spectrofluorometer (Molecular devices, Sunnyvale, Calif.) at 485/538 nm (excitation/emission).

[2] = system: IL-13-induced eotaxin-3 protein secretion in BEAS-2B cells; test: IL-13-induced eotaxin-3 protein secretion in BEAS-2Bs (ELISA); conditions: for effect on IL-13-induced eotaxin-3 protein secretion: 2 h pretreatment (1-50 μM), IL-13 5 ng/ml 48 h
Protocol: (§1) BEAS-2B, a human bronchial epithelial cell line transformed with a hybrid adenovirus 12-simian virus 40 was obtained from ATCC (CRL-9609, Manassas, Va.). Primary HNECs were collected by epithelial scraping of IT and NP and cultured. For cytokine (Peprotech, Rocky Hill, N.J.) stimulation, submerged cultured cells were treated with 1-100 ng/ml IL-13, 10 ng/ml IFN-γ, 100 ng/ml TNF or 50 ng/ml IL-17 for 6 h or 48 h. To study the effects of PPIs (Sigma-Aldrich, St Louis, Mo.) on cytokine-induced chemokines, cells were pretreated for 2 h with acid-activated omeprazole (0.1-50 μM) or other PPIs: lansoprazole, rabeprazole, pantoprazole, and esomeprazole (1-50 μM) prior to stimulation with 5 ng/ml IL-13. Additionally, SCH-28080 (1-50 μM; Sigma-Aldrich) was used with the same protocol. In experiments altering extracellular K^+ concentration ([K^+]e), modified Ringer's solution that contained different contents of K^+ (0-11.2 mM KCl, Table 4) was used as culture media. For mRNA stability assessment, actinomycin D (3 μg/ml, Sigma-Aldrich) was used and eotaxin-3 mRNA was measured using real-time PCR. Supernatants, whole cell lysates, and total RNAs were harvested for further analysis.
(§2) Eotaxin-1, eotaxin-2, and eotaxin-3 protein concentrations in supernatants were determined with the appropriate ELISA kits.

TNF-α-induced eotaxin-1 = TNF-α-induced eotaxin-1 mRNA expression in BEAS-2B cells; conditions: PPI 5 μM 2 h, TNF 100 ng/ml 6 h
Protocol: (§3) FIG. 9. […] Cells were pretreated with various PPIs for 2 h and stimulated for 6 h with IFN-γ (10 ng/ml), TNF (100 ng/ml) or IL-17 (50 ng/ml). IFN-γ-induced CXCL10 (IP-10), TNF-α-induced eotaxin-1, and IL-17-induced CXCL1 mRNA expression levels in total RNA from cells were measured by using real-time PCR. Data represent means±SEM compared with vehicle-treated/cytokine-stimulated cells. O, omeprazole; L, lansoprazole; R, rabeprazole; P, pantoprazole; E, esomeprazole all at 5 μM
as §1
(§4) mRNA levels of eotaxin-1, eotaxin-2, eotaxin-3, CXCL1, CXCL10, ATP12A, and ATP4A in total RNAs isolated from cells were measured using quantitative real-time PCR. Western blots were performed to assess total signal transducer and activator of transcription 6 (STATE), phosphorylated-STAT6 (pSTAT6) and ATP12A protein in whole cell lysates (ref. 38; incorporated by reference in its entirety).

[3] = system: IFN-γ-induced CXCL-10 (IP-10); test: IFN-γ-induced CXCL10 (IP-10) mRNA expression in BEAS-2B cells; conditions: PPI 5 μM 2 h, IFN-γ 10 ng/ml 6 h
Protocol: as §3, §1, §4

IL-17-induced CXCL-1 = test: IL-17-induced CXCL1 mRNA expression in BEAS-2B cells; conditions: PPI 5 μM 2 h, IL-17 50 ng/ml 6 h
Protocol: as §3, §1, §4

pSTAT6 = test: IL-13-induced STAT6 phosphorylation in BEAS-2Bs (Western blot)
Protocol: FIGS. 6A-6D. Effects of omeprazole on IL-13-induced STAT6 phosphorylation and eotaxin-3 mRNA stability. FIG. 6A, In IL-13-stimulated BEAS-2Bs with omeprazole or vehicle, pSTAT6 and total STAT6 protein expression were measured by using Western blots. FIG. 6B, Semi-quantitative densitometry data for A (Mean±SEM, n=3-6). FIG. 6C, Experimental protocol for eotaxin-3 mRNA stability assessment using real-time PCR. FIG. 6D, Relative eotaxin-3 mRNA expression levels following treatment with actinomycin D and/or omeprazole. mRNA levels of eotaxin-1, eotaxin-2, eotaxin-3, CXCL1, CXCL10, ATP12A, and ATP4A in total RNAs isolated from cells were measured using quantitative real-time PCR. Western blots were performed to assess total signal transducer and activator of transcription 6 (STATE), phosphorylated-STAT6 (pSTAT6) and ATP12A protein in whole cell lysates (ref. 38; incorporated by reference in its entirety).

[4] = system: IL-13-induced eotaxin-3 protein secretion in HNECs; test: IL-13-induced eotaxin-3 protein secretion in HNECs (ELISA)
Protocol: as §1, §2

[5] = 5 μM omeprazole, 2 h pretreatment, IL-13 48 h

Row | Compound | IL-13-induced intracellular alkalinization, kinetic studies [1] | effect on IL-13-induced eotaxin-3 protein secretion [2] | TNF-α-induced eotaxin-1 mRNA expression (TNF-α-induced eotaxin-1) | IFN-γ-induced CXCL-10 (IP-10) mRNA expression [3] | IL-17-induced CXCL-1 mRNA expression (IL-17-induced CXCL-1) | IL-13-induced pSTAT6 (pSTAT6) | lowest concentration significantly inhibiting IL-13-induced eotaxin-3 protein secretion [2] [µM] | IL-13-induced eotaxin-3 protein secretion was reduced [2, 5] [%] | lowest concentration significantly inhibiting IL-13-induced eotaxin-3 protein secretion [4] [µM] | IL-13-induced eotaxin-3 protein secretion was reduced [4, 5] [%]
1 | Cc1nc2c(OCc3ccccc3)cccn2c1CC#N [SCH-28080] | blunted | significantly inhibited | – | – | – | – | – | – | – | –
2 | COc1ccc2nc([S@@+]([O-])Cc3ncc(C)c(OC)c3C)[nH]c2c1 [esomeprazole, S-5-methoxy-2-{(4-methoxy-3,5 dimethylpyridin-2-yl)methylsufinyl]-3H-benzoimidazole] | – | dose-dependent inhibitory effects | did not inhibit | did not inhibit | did not inhibit | – | – | – | – | –
3 | Cc1c(OCC(F)(F)F)ccnc1C[S+]([O-])c1nc2ccccc2[nH]1 (stereo not shown) [lansoprazole] | – | dose-dependent inhibitory effects | did not inhibit | did not inhibit | did not inhibit | – | – | – | – | –
4 | COc1ccc2[nH]c([S+]([O-])Cc3ncc(C)c(OC)c3C)nc2c1 (stereo not shown) [omeprazole, 5- or 6-methoxy-2-{[(4-methoxy-3,5-dimethylpyridin-2-yl)methyl]sulfinyl}-1H-ben-zimidazole] | – | – | did not inhibit | did not inhibit | did not inhibit | not significantly inhibited | 5 | 57.9 | 1 | 37.1
5 | COc1ccnc(C[S+]([O-])c2nc3ccc(OC(F)F)cc3[nH]2)c1OC (stereo not shown) [pantoprazole] | – | – | did not inhibit | did not inhibit | did not inhibit | – | – | – | – | –
6 | COCCCOc1ccnc(C[S+]([O-])c2nc3ccccc3[nH]2)c1C (stereo not shown) [rabeprazole, 2-([4-(3-methoxypropoxy)-3-methylpyridin-2-yl]methylsulfinyl)-1H-benzo(d)-imidazole] | – | dose-dependent inhibitory effects | did not inhibit | did not inhibit | did not inhibit | – | – | – | – | –

From patent US20180092894A1, “TREATMENT OF EOSINOPHILIC INFLAMMATORY DISEASE” (Northwestern University, priority 2016, published 2018)
